Data as given in patent publication US20030092686A1, “Method of determining the initial dose of vitamin D compounds” (priority 2000, published 2003).

Test system: adult ESRD patients
Assay: Double-blind, randomized, 12-week trial of starting dose of paricalcitol injection (baseline PTH/80 vs 0.04 mcg/kg)
Assay type: in vivo, human
Conditions: for Incidences of Ca × P > 75: 2 consecutive occurrences of CaxP>75; for Median Number of Dose Adjustments: adjustments to achieve the first of 4 consecutive ≧30% decreases from baseline PTH; for Incidence(s) of Hypercalcemia: single episode, Ca>11.5 miligram/deciliter, 3x weekly, 12-week trial; for Median Days to First of 4 ≧ 30% PTH Decreases: statistically significant (P = 0.0306)
Experimental: A double-blind, randomized, 12-week trial was conducted in 125 adult ESRD patients to determine if a starting dose of paricalcitol injection using baseline PTH/80 was equivalent in the rate of hypercalcemia (single episode, Ca>11.5 miligram/deciliter) compared to the approved initial dose (0.04 mcg/kg, dry weight). Patients were randomized (1:1) to doses by either PTH/80 or 0.04 mcg/kg. Baseline demographics and laboratory values were similar between groups. Dosing occurred 3×weekly per patient hemodialysis schedule. Dose increases of 2 mcg could occur once per 2 weeks; decreases of 2 mcg could occur once per week. Patients completed the study by reducing PTH≧30% from baseline for 4 consecutive weekly measurements, or by having a single incidence of hypercalcemia, or by completing 12 weeks of treatment. The primary analysis was a comparison of the incidence of hypercalcemia between groups. Secondary analyses included the time in days to the first of 4 consecutive≧30% decreases from baseline PTH levels, the difference in the number of dose adjustments to achieve the first of 4 consecutive≧30% decreases from baseline PTH levels, and the difference in the incidence rates of 2 consecutive occurrences of CaxP>75.

[1] = initial dose 0.04 mcg/kg dry weight

## C[C@H](/C=C/[C@H](C)C(C)(C)O)[C@H]1CC[C@H]2/C(=C/C=C3C[C@@H](O)C[C@H](O)C3)CCC[C@]12C [paricalcitol injection, Paricalcitol]
[1]
  Mean PTH Decrease (SE): −193 (24.59) pg/mL
  Incidences of Ca × P > 75: 2
  Median Number of Dose Adjustments: 3
  Incidence(s) of Hypercalcemia: 0
  Median Days to First of 4 ≧ 30% PTH Decreases: 45 days
Initial dose baseline PTH/80
  Mean PTH Decrease (SE): −259 (24.01) pg/mL
  Incidences of Ca × P > 75: 5
  Median Number of Dose Adjustments: 2
  Incidence(s) of Hypercalcemia: 0
  Median Days to First of 4 ≧ 30% PTH Decreases: 31 days
